According to US9221800B2, “Isoxazole treatments for diabetes” (The Board of Regents of the University of Texas System, priority 2011, dated 2015):

Assays:
[1] = tested on: MIN6 cells; assay: Quantitative RT-PCR of endogenous insulin gene expression in MIN6 cells; type: cell-based, mouse
Description: FIGS. 2A-E. Isx (LSH-1) activates insulin expression and improves β cell function in MIN6 cells. (FIG. 2A) Dose-response relationship of MIN6 cells treated with 5-80 μM Isx for 24 h or DMSO (0.08%—similar to the highest concentration of Isx). Whole cell lysates (40 μg) were subjected to immunoblotting using antibodies against BETA2NeuroD1, MafA, PDX-1, pERK1/2 (pT183/pY185), acetylated histones ACH4-K5K8K12K16 and ACH3K9 and total histone H3. (FIG. 2B) Quantitative RT-PCR of murine insulin1 and insulin2 gene expression in MIN6 cells treated with Isx for 24 h as in FIG. 2A. (FIG. 2C) GSIS in 15 min from MIN6 cells pretreated with Isx or vehicle for 48 h in the presence or absence of the MEK1/2 inhibitor U0126 for 24 h. (FIG. 2D) Insulin content measured by ELISA in MIN6 cells treated with Isx for 24 or 48 h. […]
Total RNA was extracted from human islet preparations with TRI reagent according to manufacturer's protocol (Ambion). cDNA was prepared from total RNA by a mixture of random hexamer- and oligo-dT-primed reverse transcription (iScript Biorad). The expression of insulin and glucagon relative to 18S RNA was evaluated by TaqMan assays (Applied Biosystems). Relative expression of pancreatic factors was determined using Power SYBR Green PCR Master Mix (Applied Bio systems). […]

[2] = target: T1, PCAF (Homo sapiens, UniProt Q92831); assay: HAT activity of HATs expressed in 293 cells; type: cell-based; conditions: combination of ERK2 expression and Isx, 24 h (FIG. 8)
T1 construct: expressed in transfected cells; host or cells: HEK293
T1 sequence (Q92831 whole entry, species assumed): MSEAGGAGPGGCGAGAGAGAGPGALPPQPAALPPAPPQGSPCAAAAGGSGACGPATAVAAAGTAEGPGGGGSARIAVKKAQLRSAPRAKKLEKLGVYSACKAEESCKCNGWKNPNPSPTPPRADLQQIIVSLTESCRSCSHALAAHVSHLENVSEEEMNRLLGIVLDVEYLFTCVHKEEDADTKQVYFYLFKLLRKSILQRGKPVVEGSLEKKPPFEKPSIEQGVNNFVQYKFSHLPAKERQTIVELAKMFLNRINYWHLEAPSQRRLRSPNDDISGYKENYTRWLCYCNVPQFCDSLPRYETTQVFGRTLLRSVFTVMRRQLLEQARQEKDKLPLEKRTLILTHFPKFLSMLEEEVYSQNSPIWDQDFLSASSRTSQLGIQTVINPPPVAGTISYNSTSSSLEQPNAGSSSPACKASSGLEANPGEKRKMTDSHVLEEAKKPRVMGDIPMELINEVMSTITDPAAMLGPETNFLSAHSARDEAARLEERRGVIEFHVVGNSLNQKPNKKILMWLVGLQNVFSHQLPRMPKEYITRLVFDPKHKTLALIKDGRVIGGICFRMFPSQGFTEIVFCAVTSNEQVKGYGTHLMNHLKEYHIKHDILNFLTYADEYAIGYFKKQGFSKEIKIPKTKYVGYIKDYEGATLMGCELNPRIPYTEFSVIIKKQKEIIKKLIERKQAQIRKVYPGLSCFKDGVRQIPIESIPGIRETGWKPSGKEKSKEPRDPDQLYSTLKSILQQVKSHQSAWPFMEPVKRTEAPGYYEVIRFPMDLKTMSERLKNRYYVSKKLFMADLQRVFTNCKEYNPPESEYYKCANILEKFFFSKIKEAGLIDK
Description: (FIG. 8A) Combined effect of Isx treatment for 24 h and WT ERK2 (W) or kinase dead K52R ERK2 (R) on the HAT activities of p300, and (FIG. 8B) other HATs, CBP, PCAF and GCN5-L2, transfected in HEK293 cells.

[3] = tested on: MIN6 cells; assay: Insulin secretion (GSIS) and insulin content in MIN6 cells; type: cell-based, mouse
Description: MIN6 cells were cultured in DMEM (Gibco), containing 25 mM glucose, 10% fetal bovine serum, 10 mM Hepes pH 7.4, 10.2 mM L-glutamine, […] sodium pyruvate, 2.5 mM β-mercaptoethanol, 100 U/ml penicillin and 100 μg/ml streptomycin at 37° C. in 10% CO2. Human islets were obtained from the ICR Basic Science Islet Distribution and from the University of Alabama, Birmingham Islet Resource Facility and were cultured in RPMI 1640 with 11 mM glucose for up to 1 year. The medium was changed twice weekly and the islets were subcultured when they reached 90% confluence. For Isx treatments, cells were incubated in medium containing either Isx or the equivalent volume of DMSO vehicle (0.04%). To measure GSIS, cells were placed in Krebs-Ringer bicarbonate/Hepes containing 0.1% bovine serum albumin and 2 mM glucose for 2 h, and stimulated for 15 min with 20 mM glucose, a 1× amino-acid mixture (concentrations as in DMEM), or 50 nM Exendin-4. U0126 (10 μM), nifedipine (3 μM), BAPTA (10 μM), wortmanin (0.5 μM) or FK506 (0.1 μM) were added for 1-24 h as indicated.

[4] = tested on: HAT; assay: HAT activity in nuclear extracts of treated MIN6 cells; type: cell-based, mouse
Description: (§1) The histone acetyl transferase and deacetylase activities were measured in 50 μg of nuclear protein using the HAT and HDAC activity colorimetric assay kits from Biovision Biotechnology according to manufacturer's recommendations.

[5] = tested on: HDAC; assay: HDAC activity in nuclear extracts of treated MIN6 cells; type: cell-based, mouse; conditions: 24 h treatment, TSA 2 μM positive control (FIG. 4B)
Description: as §1

O=C(NC1CC1)c1cc(-c2cccs2)on1 [Isx, N-cyclopropyl-5-(thiophen-2-yl)isoxazole-3-carboxamide]
increase in preproinsulin mRNA ([1]; Isx 24 h (FIG. 2B)): ≤ 4 fold
concentration for optimal activation of endogenous insulin gene expression ([1]; MIN6 cells (FIG. 12)): 20 µM
PCAF HAT activity [2]: not
insulin content ([3]; Isx 24 or 48 h (FIG. 2D)): relatively small increase
Glucose-stimulated insulin secretion (GSIS) increase ([3]; Isx pretreatment 48 h (FIG. 2C)): ~4 fold
increase of stimulation of insulin secretion by glucose, amino acids and exendin-4, individually and in combination ([3]; Isx pretreatment 48 h (FIG. 2E)): 2 to 5 fold
HAT activity increase ([4]; nuclear extracts from Isx-treated MIN6 cells, 24 h (FIG. 4C)): ~2 fold
HAT activity in nuclear extracts of MIN6 cells expressing p300 ([4]; over and above that from expressed p300): increased
HDAC activity in MIN6 cells [5]: not affected
